“Also recorded” adds a separate entry of the source. One block for each compound: values may come before it.
Tests used:
[1] = biological target: T1, SPR in P388D1 cells (Mus musculus, UniProt P30548); test: Photoaffinity labeling of SPR in P388D1 cells; assay type: binding, murine; conditions: presence of excess unlabeled SP or CP-96,345
T1 construct: a nontransfected murine macrophage/monocyte cell line; endogenous in cells; host or cells: P388D1 (murine macrophage/monocyte cell line)
Method: P388D1 cells (5×10^6 cells/5 ml) were inoculated on FBS-pretreated dishes (60 mm) in DMEM with 10% FBS and grown overnight. The cultured cells (approximately 1×10^7) were incubated with protease inhibitors and 0.1% BSA for 30 min at room temperature (25° C.). The cells were then washed twice (5 ml) with ice-cold buffer (DMEM+20 mM HEPES, pH 6.7) and incubated with 5 ml of buffer on ice for at least 10 min, in the presence of protease inhibitors, and 0.1% BSA. […] The dishes were then frozen by placement on crushed dry ice. The frozen sample was irradiated under nitrogen for 2 h using a focused HBO 100-watt mercury short arc lamp through an optical filter to eliminate light below 310 nm. A second filter removed infrared wavelengths (>900 nm) to minimize sample heating during photolysis (Li et al., 1995a). Alternatively, the sample can be irradiated in a commerical photoreactor at 3500 Å.
After photolysis, the sample was thawed and any remaining attached cells were scraped from the bottom of the plate. The sample was transferred to microfuge tubes and centrifuged at 16,000 g for 30 min. The pelleted cells were hypotonically lysed by resuspending in 0.3 ml of 5 mM Tris-HCl, pH 8.0, for 15 min at room temperature. Then the samples were homogenized and centrifuged at 500 g for 15 min to remove debris. […]

[2] = biological target: anti-substance P antibody; test: Radioimmunoassay: displacement of [^125 I]BHSP from anti-substance P antibody; assay type: binding; conditions: for IC50: antibody dilution 1/160,000, [^125 I]BHSP 3.3 pM, 4° C. overnight, mean±standard deviation of ≥3 experiments
[3] = biological target: T1, SPR in P388D1 cells; assay type: binding, murine
Method: Percentage of tracer bound was determined by solubilization and counting after washing away excess unbound tracer. […] The data shown is the average of four experiments containing triplicate samples in each. IC50 is expressed as the mean±standard deviation of ≥4 experiments.
Protease inhibitors (0.004% bacitracin, 0.0002% chymostatin, 0.0004% leupeptin) and 0.1% BSA was added to the confluent cells (approximately 1×10^6 cells/well in DMEM and 10% FBS) and incubated for 30 min at room temperature (25° C.). The cells were then washed twice (0.5 ml/well) with ice-cold buffer (DMEM+20 mM HEPES, pH 7.2) and incubated with 0.5 ml of buffer on ice for at least 10 min in the presence of protease inhibitors and 0.1% BSA. […] After incubation, the cells were washed twice with 0.5 ml/well phosphate-buffered saline (104 mM NaCl, 2.7 mM KCl, 10 mM Na2 HPO4, 1.8 mM KH2 PO4, pH 7.2), then solubilized by 0.5 ml lysis buffer (1% Nonidet P-40, 0.2% SDS, 150 mM NaCl, 50 mM Tris, pH 8.0) for 20 min and transferred for gamma counting. […] Curve fitting was performed as described above.

[4] = Retention of radioiodine during photolysis (model benzophenone); assay type: physicochemical; conditions: receptor photolabeling conditions, twice the photolysis time

T1 sequence (P30548 whole entry, one chain of several): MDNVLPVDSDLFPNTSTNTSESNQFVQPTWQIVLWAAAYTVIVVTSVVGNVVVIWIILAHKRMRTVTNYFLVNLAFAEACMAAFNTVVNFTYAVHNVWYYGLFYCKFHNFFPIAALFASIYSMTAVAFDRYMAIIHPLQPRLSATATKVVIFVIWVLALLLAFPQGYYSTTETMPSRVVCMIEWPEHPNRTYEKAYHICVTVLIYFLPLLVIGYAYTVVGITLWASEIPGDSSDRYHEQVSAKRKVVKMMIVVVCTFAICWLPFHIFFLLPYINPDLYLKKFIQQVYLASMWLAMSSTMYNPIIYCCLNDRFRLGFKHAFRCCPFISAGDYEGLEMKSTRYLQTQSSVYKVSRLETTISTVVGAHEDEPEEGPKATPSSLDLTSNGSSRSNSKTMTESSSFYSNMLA

SMILES: COc1ccccc1CN[C@H]1C2CCN(CC2)[C@H]1C(c1ccccc1)c1ccccc1 [CP-96,345, (2S, 3S)-cis-2-(diphenylmethyl)-N-[(2-methoxyphenyl)-methyl]-1-aza-bicyclo[2.2.2]octan-3-amine]
- inhibition of photolabeling by [^125 I]HBPA^8 -SP [1]: completely inhibited

SMILES: CSCC[C@H](NC(=O)[C@H](CC(C)C)NC(=O)CNC(=O)[C@H](Cc1ccccc1)NC(=O)[C@H](Cc1ccccc1)NC(=O)[C@H](CCC(N)=O)NC(=O)[C@H](CCC(N)=O)NC(=O)[C@@H]1CCCN1C(=O)[C@H](CCCCN)NC(=O)[C@@H]1CCCN1C(=O)[C@@H](N)CCCNC(=N)N)C(N)=O [SP, reference compound]
- IC50 [2]: 71 ± 6 pM

SMILES: CSCC[C@H](NC(=O)[C@H](CC(C)C)NC(=O)CNC(=O)[C@@H](Cc1ccc(C(=O)c2ccc(O)cc2)cc1)NC(=O)[C@H](Cc1ccccc1)NC(=O)[C@H](CCC(N)=O)NC(=O)[C@H](CCC(N)=O)NC(=O)[C@@H]1CCCN1C(=O)[C@H](CCCCN)NC(=O)[C@@H]1CCCN1C(=O)[C@@H](N)CCCNC(=N)N)C(N)=O [D-HBPA^8 -SP]
- IC50 [2]: 390 ± 40 pM
- IC50 ([3]; tracer 25 pM [^125 I]BHSP, 2 h on ice, mean±standard deviation of ≥4 experiments, read-out: IC50 for displacement of [^125 I]BHSP): 1500 ± 340 pM

- radioiodine remaining incorporated in the starting material after photolysis [4]: greater than 98%
SMILES: O=C(c1ccccc1)c1ccc(O)c([125I])c1 [[^125 I]-3-iodo-4-hydroxybenzophenone]

SMILES: CSCC[C@H](NC(=O)[C@H](CC(C)C)NC(=O)CNC(=O)[C@H](Cc1ccc(C(=O)c2ccc(O)cc2)cc1)NC(=O)[C@H](Cc1ccccc1)NC(=O)[C@H](CCC(N)=O)NC(=O)[C@H](CCC(N)=O)NC(=O)[C@@H]1CCCN1C(=O)[C@H](CCCCN)NC(=O)[C@@H]1CCCN1C(=O)[C@@H](N)CCCNC(=N)N)C(N)=O [L-HBPA^8 -SP, ArgProLysProGlnGlnPhe(L-HBPA)GlyLeuMet-NH2]
- IC50 [2]: 52 ± 8 pM
- affinity for anti-SP antiserum (in words) ([2]; compared with native SP or other diastereomer): binds to the antibody with a higher affinity
- activity with both a SP specific antibody and SPR, antibody part (in words) ([2]; first HPLC peak versus second): more active than the second
- activity with both a SP specific antibody and SPR, receptor part (in words) ([3]; first HPLC peak versus second): more active than the second
- affinity / specificity for SPR (in words) ([3]; murine SP receptor, P388D1 cells): bind with high affinity and specificity to SPR; also recorded: a specific as well as a high affinity ligand for the receptor

Reference: US5986136A, “Photolabeling reagent” (President and Fellows of Harvard College, priority 1998, dated 1999)
